The values below come from patent publication US20230234948A1, “CYCLOPROPYL DIHYDROQUINOLINE SULFONAMIDE COMPOUNDS” (AMGEN INC., priority 2020, published 2023).

One data set relates to CYP3A4. The data set is described as follows: Human CYP 3A4 induction assay (mRNA, cryopreserved human hepatocytes). In kind it is in vitro ADME. Particulars: 10 uM test compound, 72 hours, percent of control (rifampin positive control). As for the experimental part:
Human CYP 3A4 Induction Assay
Cryopreserved human hepatocytes were seeded in 96-well collagen coated plates at 70,000 cells per well in hepatocyte plating media (HPM, final concentrations: 1× Dulbecco's Modified Eagle's Medium, 0.1 μM dexamethasone, 10% fetal bovine serum, 1×ITS, 1×PSG) followed by incubation at 37° C. under 5% CO2 and 90% relative humidity for 2 days to allow hepatocytes to form a confluent layer. On Day 3, hepatocytes were treated with either test compound or rifampin (20 μM, positive control for CYP3A induction) prepared in hepatocyte incubation media ((HIM, final concentrations: 1× William's Medium E, 0.1 μM dexamethasone, 1×ITS, 1×PSG). Treatment was performed for 72 hours with either 2 concentrations (2 μM or 10 μM) or a range of concentrations (0.001 μM to 100 μM) of the test compound to obtain full dose-response curve. Fresh media containing the relevant concentrations of the test compound was replaced every day until the samples were processed. After 72 hours of incubation, samples were processed for mRNA analysis using bDNA technology using manufacturer's instructions (Affymetrix, Fremont, Calif.). Cell viability was tested at the end of the experiment using MTT assay kit (Roche Diagnostics, Basel, Switzerland). Data was analyzed and presented as percent of control (POC) and Emax and EC50 obtained when appropriate according to guidance from Center for Drug Evaluation and Research (CDER), 2006, Guidance for Industry, Drug Interaction Studies—Study Design, Data Analysis, and Implications for Dosing and Labeling.
Cryopreserved human hepatocytes were seeded in 96-well collagen coated plates at 70,000 cells per well in hepatocyte plating media (HPM, final concentrations: 1× Dulbecco's Modified Eagle's Medium, 0.1 μM dexamethasone, 10% fetal bovine serum, 1×ITS, 1×PSG) followed by incubation at 37° C. under 5% CO2 and 90% relative humidity for 2 days to allow hepatocytes to form a confluent layer. On Day 3, hepatocytes were treated with either test compound or rifampin (20 μM, positive control for CYP3A induction) prepared in hepatocyte incubation media ((HIM, final concentrations: 1× William's Medium E, 0.1 μM dexamethasone, 1×ITS, 1×PSG). Treatment was performed for 72 hours with either 2 concentrations (2 μM or 10 μM) or a range of concentrations (0.001 μM to 100 μM) of the test compound to obtain full dose-response curve. Fresh media containing the relevant concentrations of the test compound was replaced every day until the samples were processed. After 72 hours of incubation, samples were processed for mRNA analysis using bDNA technology using manufacturer's instructions (Affymetrix, Fremont, Calif.). Cell viability was tested at the end of the experiment using MTT assay kit (Roche Diagnostics, Basel, Switzerland). Data was analyzed and presented as percent of control (POC) and Emax and EC50 obtained when appropriate, as described in Halladay, J. et al, 2012, An “all-inclusive” 96-well cytochrome P450 induction method: Measuring enzyme activity, mRNA levels, protein levels, and cytotoxicity from one well using cryopreserved human hepatocytes, Pharmacological and Toxicological Methods, 66:270-275.
The cytochrome P450 (CYP) is a well-known superfamily of enzymes that are responsible for the oxidative and reductive metabolic transformation of medications used in clinical practice. In addition, the CYP enzymes are commonly associated with causing many clinically relevant drug-drug interactions. […]

In the next data set the target is T1, Human NaV1.7 (Homo sapiens, UniProt Q15858).
T1 construct: expressed in transfected cells; host or cells: Spiking HEK cells (without Kir2.1 transfection)
The data set is described as follows: Ionworks Barracuda (IWB) automated patch clamp assay. It is filed as cell-based. Particulars: human NaV1.7 in HEK cells, population patch-clamp, state- and use-dependent voltage protocol; read-out: hNaV1.7 IWB-U IC50. As for the experimental part: Ionworks Barracuda (IWB) Automated Patch Clamp Assay (Same Protocol for Both Human and Mouse)
Human NaV1.7 currents were recorded in population patch-clamp mode with the IWB automated electrophysiology system (Molecular Devices, LLC, Sunnyvale, Calif.). Spiking HEK cells (without Kir2.1 transfection) were cultured and prepared for recordings as previously described for IonWorks Quattro testing^1. The external solution consisted of the following (in mM): NaCl 140, KCl 5, CaCl2 2, MgCl2 1, HEPES 10, and glucose 11, pH 7.4, with N-methyl-D-glucamine at 320 mOsmol. […] From a holding potential of −110 mV, currents were elicited by a train of 26 depolarizations of 150 ms duration to −20 mV at a frequency of 5 Hz. Cells were then clamped to −20 mV for a period of 4 minutes in the presence of a single concentration of test compound. Following this compound incubation period, cells were clamped to −110 mV for three seconds to recover unbound channels and put through the same 26 pulse voltage protocol as above. Peak inward current during the 26th pulse to −20 mV in the presence of compound was divided by the peak inward current evoked by the 26th pulse to −20 mV in the absence of compound to determine percent inhibition. Concentration-response curves of percent inhibition as a function of concentration were generated to calculate IC50 values as described in Kornecook, T. J.; Yin, R.; Altmann, S.; et al. Pharmacologic Characterization of AMG8379, a Potent and Selective Small Molecule Sulfonamide Antagonist of the Voltage-Gated Sodium Channel NaV1. 7.
The potency of the compounds of the present invention were evaluated on human NaV1.7 channels using the above described IonWorks Barracuda automated electrophysiology platform that evaluates the ability of compounds to block sodium conductance through NaV1.7 channels. A voltage-protocol that prosecutes both state-dependent as well as use-dependent inhibition was used as these modes of action are thought to be more relevant for the native state of NaV1.7 channels in pain sensing neurons in vivo.
(In general: In patch-clamp work, channel activity is measured electrically.)

T1 sequence (Q15858 whole entry): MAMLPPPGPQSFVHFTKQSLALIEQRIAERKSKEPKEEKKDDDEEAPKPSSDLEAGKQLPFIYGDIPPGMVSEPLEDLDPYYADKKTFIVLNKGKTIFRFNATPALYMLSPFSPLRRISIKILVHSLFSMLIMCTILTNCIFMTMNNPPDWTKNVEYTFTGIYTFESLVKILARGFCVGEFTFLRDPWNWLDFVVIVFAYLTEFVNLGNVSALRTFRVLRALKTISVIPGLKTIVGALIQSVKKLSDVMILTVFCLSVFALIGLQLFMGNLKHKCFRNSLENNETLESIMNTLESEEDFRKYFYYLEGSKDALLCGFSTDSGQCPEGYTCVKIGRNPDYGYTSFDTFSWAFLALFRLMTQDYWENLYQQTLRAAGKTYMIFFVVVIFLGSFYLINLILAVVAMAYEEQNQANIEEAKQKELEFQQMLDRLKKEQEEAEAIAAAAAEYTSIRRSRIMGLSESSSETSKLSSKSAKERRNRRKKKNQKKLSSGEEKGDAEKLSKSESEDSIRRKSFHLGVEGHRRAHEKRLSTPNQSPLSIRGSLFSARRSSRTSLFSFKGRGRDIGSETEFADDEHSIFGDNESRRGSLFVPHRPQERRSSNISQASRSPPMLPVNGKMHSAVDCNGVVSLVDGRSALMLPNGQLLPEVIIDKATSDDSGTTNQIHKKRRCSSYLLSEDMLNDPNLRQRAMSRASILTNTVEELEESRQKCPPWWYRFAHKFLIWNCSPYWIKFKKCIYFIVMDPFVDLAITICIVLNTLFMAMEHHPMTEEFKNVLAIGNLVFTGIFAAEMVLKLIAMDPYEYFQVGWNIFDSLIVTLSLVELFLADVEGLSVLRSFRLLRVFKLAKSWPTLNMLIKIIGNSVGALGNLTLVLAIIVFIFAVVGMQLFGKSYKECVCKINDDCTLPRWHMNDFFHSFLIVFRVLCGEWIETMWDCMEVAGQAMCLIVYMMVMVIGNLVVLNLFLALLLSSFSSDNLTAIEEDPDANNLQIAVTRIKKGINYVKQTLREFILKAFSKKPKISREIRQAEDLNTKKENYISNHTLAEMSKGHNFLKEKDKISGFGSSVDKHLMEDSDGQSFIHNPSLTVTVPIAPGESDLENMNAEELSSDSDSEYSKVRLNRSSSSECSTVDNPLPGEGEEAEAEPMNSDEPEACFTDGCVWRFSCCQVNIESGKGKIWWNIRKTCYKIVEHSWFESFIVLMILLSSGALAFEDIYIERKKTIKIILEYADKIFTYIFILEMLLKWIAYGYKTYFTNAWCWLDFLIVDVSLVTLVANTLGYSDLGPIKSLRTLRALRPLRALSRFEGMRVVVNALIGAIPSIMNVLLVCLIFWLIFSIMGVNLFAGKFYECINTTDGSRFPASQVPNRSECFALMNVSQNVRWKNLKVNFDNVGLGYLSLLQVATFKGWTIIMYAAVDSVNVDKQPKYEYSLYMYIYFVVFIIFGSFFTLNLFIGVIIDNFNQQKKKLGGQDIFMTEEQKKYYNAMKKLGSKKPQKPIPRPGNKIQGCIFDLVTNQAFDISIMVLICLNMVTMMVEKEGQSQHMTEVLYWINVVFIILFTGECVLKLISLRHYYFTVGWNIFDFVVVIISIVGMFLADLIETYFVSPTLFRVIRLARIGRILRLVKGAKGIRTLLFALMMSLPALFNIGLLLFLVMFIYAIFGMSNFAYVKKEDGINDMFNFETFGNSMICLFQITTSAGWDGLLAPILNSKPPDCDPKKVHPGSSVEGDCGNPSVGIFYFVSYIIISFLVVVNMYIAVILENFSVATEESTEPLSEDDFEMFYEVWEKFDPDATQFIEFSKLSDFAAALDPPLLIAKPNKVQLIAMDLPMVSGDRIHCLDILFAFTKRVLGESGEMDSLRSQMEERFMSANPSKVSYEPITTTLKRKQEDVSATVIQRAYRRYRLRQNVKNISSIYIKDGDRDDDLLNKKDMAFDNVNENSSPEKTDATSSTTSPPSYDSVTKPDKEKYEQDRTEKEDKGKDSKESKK

Regarding `COc1cc([C@@H]2C[C@H]2C(F)(F)F)c(F)cc1-n1c(=O)ccc2cc(S(=O)(=O)Nc3ccon3)c(F)cc21` (atropisomer, axis not shown; (P)) [Example 45, (P)-7-fluoro-1-(5-fluoro-2-methoxy-4-((1R,2R)-2-(trifluoromethyl)cyclopropyl)phenyl)-N-(isoxazol-3-yl)-2-oxo-1,2-dihydroquinoline-6-sulfonamide], the “CYP3A4 mRNA Induct Hu 10 uM POC” value in the data set with CYP3A4 amounted to 24.57%.

Consider `COc1cc([C@@H]2C[C@H]2C(F)(F)F)c(F)cc1-n1c(=O)ccc2cc(S(=O)(=O)Nc3nncs3)ccc21` (atropisomer, axis not shown; (P)) [Example 40, (P)-1-(5-fluoro-2-methoxy-4-((1R,2R)-2-(trifluoromethyl)cyclopropyl)phenyl)-2-oxo-N-(1,3,4-thiadiazol-2-yl)-1,2-dihydroquinoline-6-sulfonamide], for which, in the data set on CYP3A4, the “CYP3A4 mRNA Induct Hu 10 uM POC” value is 10.79%.

What is called IC50 is the concentration at which inhibition is half-maximal. On to `COc1cc([C@@H]2C[C@H]2C(F)(F)F)ccc1-n1c(=O)ccc2cc(S(=O)(=O)Nc3ccon3)ccc21` (single isomer, unassigned) [Example 38], for which, at Human NaV1.7, the IC50 was found to be 10 nM. Moreover, the “CYP3A4 mRNA Induct Hu 10 uM POC” value with CYP3A4 is on record as 29.06%.

Turning to `COc1cc([C@H]2C[C@@H]2C(F)(F)F)ccc1-n1c(=O)ccc2cc(S(=O)(=O)Nc3ccon3)ccc21` (single isomer, unassigned) [Example 39], the IC50 at Human NaV1.7 worked out at 8 nM. Besides, in the data set with CYP3A4, the “CYP3A4 mRNA Induct Hu 10 uM POC” value is given as 38.35%.

For the compound “(P)-1-(5-fluoro-2-methoxy-4-((1S,2S)-2-((trifluoromethoxy)methyl)cyclopropyl)phenyl)-N-(isoxazol-3-yl)-2-oxo-1,2-dihydroquinoline-6-sulfonamide [Example 33]”, the IC50 on Human NaV1.7 came to 4 nM. In addition, the “CYP3A4 mRNA Induct Hu 10 uM POC” value in the data set on CYP3A4 is 139.9%.
